This note sets out measurements from the METLIN SMRT retention time set (Domingo-Almenara et al. 2019).

Each structure is given as a SMILES string.

The series can be described thus: gradient 5% acetonitrile 3 min, to 50% in 2 min, to 85% in 15 min, held 3 min, 100 µL/min. The settings on record: column: Zorbax Extend-C18 2.1 x 50 mm; eluents: water / acetonitrile, 0.1% formic acid. Put shortly: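 Retention times come from adduct peaks that were picked computationally and then checked by hand. The standards, pure and pooled in mixtures of ~100 molecules, were run on a Zorbax Extend-C18 column (2.1 × 50 mm, 1.8 μm) at 100 μL/min with water and acetonitrile, each with 0.1% formic acid. Detection was by quadrupole time-of-flight mass spectrometry in positive and negative ionization mode, with a dead volume of 40 μL and a dwell volume of 900 μL.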
`CC1CN(c2nc(-c3ccc([N+](=O)[O-])cc3)nc3ccccc23)CC(C)O1` (centres undefined) yielded an RP-LC retention time of 1030 s. The compound `CCc1nnsc1C(=O)Nc1ccc(S(=O)(=O)Nc2onc(C)c2C)cc1` registered an RP-LC retention time of 759 s. In turn, `COc1ccccc1-c1nc2nccc(-c3ccc4c(c3)OCCCO4)n2n1` displayed an RP-LC retention time of 888 s. To `COc1ccc(C(=O)Nc2ccc3c(c2)Sc2ncccc2C(=O)N3C(C)C)c(OC)c1` belongs 951 s. To `COc1cc(OC)c(NS(=O)(=O)c2cc(-c3c(C)noc3NC(C)=O)ccc2OC)cc1Cl` belongs 792 s; to `O=C(c1ccc2c(c1)OCO2)N1CCC(F)(F)C(COCC2CC2)C1` (centres undefined), 933 s; to `O=C(Nc1ccc2scnc2c1)c1ccc(Cl)cc1Cl`, 801 s.

As to `O=C1CC(c2cccc(Cl)c2)Cc2nc(N3CCN(c4ccccc4)CC3)ncc21` (centres undefined), the RP-LC retention time was found to be 1340 s. To `Cn1c(=O)sc2cc(S(=O)(=O)N3CCC(C(=O)NCc4cccnc4)CC3)ccc21` belongs 603 s. To `Cc1ccc(-c2nnc(N3CCC(C(=O)N4CCN(C5CCCCC5)CC4)CC3)o2)cc1` belongs 644 s. The figure for `Cn1c(N2CCC(C(=O)N3CCN(Cc4ccc5c(c4)OCO5)CC3)CC2)cc(=O)n(C)c1=O` is 579 s; for `Cc1ccc(Cn2c(=O)c(N3CCCC(C(=O)NCCc4c(C)noc4C)C3)nc3ccccc32)cc1` (centres undefined) it is 1080 s; for `Cc1ccc(-c2nc(C3CCN(S(=O)(=O)c4ccc(C)c(C)c4)CC3)no2)cc1` it is 1320 s.

`Cc1ccsc1C(=O)Nc1cccn2c(C)nnc12` came in with an RP-LC retention time of 670 s. To `CCCCOc1ccc(-c2cc3c4nnc(CCC(=O)NCCc5cccs5)n4ccn3n2)cc1` belongs 943 s. The compound `COc1ccc(CC(=O)Nc2ccc3c(c2)CCC(=O)N3C)c(Cl)c1` displayed an RP-LC retention time of 768 s. The figure for `CC(C)n1c(SCC(=O)N2CCCC2)nnc1-c1ccc2c(c1)OCCCO2` is 671 s; for `CC(=O)c1sc(NC(=O)c2cc(Cl)ccc2Cl)nc1C` it is 817 s; for `CC(C)NC(=O)c1ccc(OCC2CCN(C(=O)c3ccc(Cl)cc3)CC2)cc1` it is 918 s. The figure for `CCOC(=O)c1csc(NC(=O)C2CCCN(c3ccc(-c4ccccc4)nn3)C2)n1` (centres undefined) is 659 s; for `O=C(CCC1CCCN(S(=O)(=O)c2ccccc2)C1)N1CCCCC1` (centres undefined) it is 902 s. `CCc1nn2c(ncc3c(=O)n(-c4nccs4)ccc32)c1-c1ccc(F)cc1`: the RP-LC retention time was found to be 1320 s. To `N#Cc1ccc(S(=O)(=O)N2CC(c3nc(CCOCC4CCOCC4)no3)C2)cc1` belongs 813 s. To `Cc1onc(-c2c(F)cccc2Cl)c1C(=O)N1CCOCC1` belongs 727 s; to `CCOC(=O)C1=C(CN2CCC(C(=O)OCC)CC2)NC(=O)NC1c1ccc(C)cc1` (centres undefined), 665 s. For the compound `CCCNc1cc(N2CCC(CCC(=O)NCc3cccc(Cl)c3)CC2)ncn1`, the RP-LC retention time stood at 718 s. `Cc1ccc(Nc2c(-c3ccc(O)cc3)nc3cc(C)ccn23)cc1` displayed an RP-LC retention time of 696 s. The figure for `O=c1nc(NCc2ccccc2)c2ccccc2[nH]1` is 620 s; for `Cn1cnc2c(C(=O)N3CCN(c4ccccn4)CC3)nn(-c3ccccc3)c2c1=O` it is 599 s. The figure for `O=C(CCn1cnc2cc(-c3noc(COc4ccc(Cl)cc4)n3)ccc21)N1CCCCCC1` is 884 s; for `Cc1ccc(C(=O)Nc2nc(-c3ccccc3)cs2)o1` it is 973 s; for `Cc1cc(C)n(CC(=O)NC(C)c2ccccc2)c1-c1nc(C2CC2)no1` (centres undefined) it is 914 s.

The compound `O=C(C(c1ccccc1)n1cccc1)N1CCCC1` (centres undefined) came in with an RP-LC retention time of 782 s. The figure for `Cc1ccc(C)c(Cn2nc3ccc(S(=O)(=O)N4CCSCC4)cn3c2=O)c1` is 996 s; for `COc1cc(NC(=O)c2csc(-c3cn(C)c4ncccc34)n2)cc(OC)c1` it is 1010 s. The figure for `CCN1C(=O)C(CC(=O)NCc2ccncc2)Sc2ncccc21` (centres undefined) is 558 s; for `CC1Cn2cc(C(=O)NCCCN3CCOCC3)c(=O)c3c(Cl)ccc(c32)O1` (centres undefined) it is 624 s. The figure for `CCS(=O)(=O)N1CC(=O)N(c2cccc(Cl)c2C)C(C)(C(=O)NCc2ccccc2)C1` (centres undefined) is 906 s; for `Cc1ccccc1CNC(=O)C1(C)CCCN(C(=O)NCc2ccco2)C1` (centres undefined) it is 809 s. `Cc1ccc(N2CC(C(=O)N3CCC(NS(=O)(=O)c4ccc(C)cc4)CC3)CC2=O)cc1` (centres undefined) gave an RP-LC retention time of 826 s. To `O=C(Cn1cccc(-c2nc(-c3ccc(F)cc3)no2)c1=O)Nc1ccc(F)cc1` belongs 878 s; to `CN(C)C[C@@H]1CN(c2ncccn2)C[C@H]1NC(=O)c1ccc(Cl)s1`, 605 s; to `CC1=C(c2cccc(Cl)c2)S(=O)(=O)N=C1N1CCCN(C(=O)c2ccsc2)CC1`, 851 s. The figure for `COCCn1cc(C(=O)NCC(C)C)c2nn(-c3ccccc3)c(=O)c-2c1` is 851 s; for `CCc1cc(=O)n(CC(=O)Nc2ccccc2)c(-c2ccccc2)n1` it is 1090 s. To `CC1=C(c2ccccc2)S(=O)(=O)N=C1N1CCCN(C(=O)NCC(C)C)CC1` belongs 768 s; to `O=C(Cn1cnc2nc3c(cc2c1=O)CCCC3)Nc1ccccc1Br`, 732 s; to `Fc1cccc(-c2nnc(Cc3nc(-c4ccc5c(c4)OCO5)no3)o2)c1`, 958 s. In turn, `CN(C)c1ccc(C(=O)Nc2cc(-c3cccnc3)no2)cc1` had an RP-LC retention time of 738 s. To `O=C(NCc1ccccc1)C(=O)c1c[nH]c2ccccc12` belongs 605 s; to `CCCc1noc(-c2ccnc(-n3cnc(C(=O)NC4CCCCC4)c3)c2)n1`, 973 s; to `Cc1cc(C)n2nc(CN(C(=O)c3cccs3)c3ccc(F)cc3)nc2n1`, 779 s. The figure for `O=c1ccc(-c2ccc3c(c2)OCO3)nn1Cc1nc(-c2ccc(F)c(Br)c2)no1` is 1100 s; for `COc1cc2c(cc1OC)C1C(C(=O)NCCCN3CCC(C)CC3)c3ccccc3C(=O)N1CC2` (centres undefined) it is 629 s; for `Cn1cc(C(F)(F)F)nc1-c1ccc(OCC(O)CNCCOc2ccc(O)c(C(N)=O)c2)cc1` (centres undefined) it is 710 s. To `CCN(CC)c1ncc2c(n1)CCC(C(=O)NCc1cccc(OC)c1)C2` (centres undefined) belongs 695 s; to `CCC(=O)N1CCc2cc(N3CC(C(=O)Nc4ccccc4CC)CC3=O)ccc21` (centres undefined), 750 s. Turning to `CN(C)C(CNC(=O)c1ccc(Br)o1)c1cn(C)c2ccccc12` (centres undefined), the RP-LC retention time came to 578 s. To `Cc1nc2ccccc2nc1SCC(=O)c1ccccc1` belongs 970 s; to `CCc1ccc(NC(=O)N2CCCC(C)(C(=O)NCc3ccccc3)C2)cc1` (centres undefined), 878 s; to `CCc1nc(-n2cccc2)sc1C(=O)Nc1ccc(C)cc1F`, 1200 s. The figure for `COc1ccc(Cl)cc1Nc1c(-c2nc(C)no2)cnc2nc(C)ccc12` is 794 s; for `Cc1nnc(-c2ccc(OCC(=O)N(C(C)C)C(C)C)cc2)o1` it is 708 s; for `O=C(Nc1cccc(Br)c1)N1CCC(n2cnnc2C2CC2)C1` (centres undefined) it is 668 s. For the compound `CCOc1cccc(-c2noc(Cn3ccn(-c4ccccc4OC)c(=O)c3=O)n2)c1`, the RP-LC retention time worked out at 863 s.

The compound `Cc1ccc(NS(=O)(=O)c2cc3n(c2)CCN(CC(C)C)C3=O)cc1F` gave an RP-LC retention time of 840 s. To `COc1cccc(CN2CC[C@@H]3CN(S(C)(=O)=O)[C@@H]3C2)n1` belongs 553 s. The figure for `O=C(Cc1ccc(F)cc1)NCc1ccc(-c2nc(C3CC3)no2)s1` is 885 s. To `CCOc1ccc(NC(=O)c2c(O)c3cccnc3n(-c3ccccc3)c2=O)cc1` belongs 1270 s.

For the compound `CNC(=O)C1CN(S(=O)(=O)c2ccc(C)cc2)CC12CCCC2` (centres undefined), the RP-LC retention time stood at 596 s. To `O=C(/C=C/c1ccccc1)NC(NC(=S)Nc1ccc(Cl)cc1)C(Cl)(Cl)Cl` (centres undefined) belongs 1030 s; to `O=C(Nc1ccccc1)N1CCC(Oc2ccccc2)C1` (centres undefined), 872 s; to `CCN1CCN(CCCNC(=O)C(C)n2c(=O)c(C(F)(F)F)nc3cc(C)c(C)cc32)CC1` (centres undefined), 649 s. As to `CCOC(=O)C1=C(C)NC2=C(C(=O)C(C(=O)OC)C(C)C2)C1c1ccccc1Cl` (centres undefined), the RP-LC retention time came out at 965 s.

Take `CCOc1ccc(CNC(=O)c2ccc3c(c2)NC(=O)C2CCCCN32)cc1OC` (centres undefined): the RP-LC retention time was 747 s. To `CCc1cc2c(N3CCCC(C(=O)NCCCN4CCN(CC)CC4)C3)ncnc2s1` (centres undefined) belongs 579 s; to `CCOc1ccccc1N1CCN(S(=O)(=O)c2nn(C)cc2C(=O)NC2CCCC2)CC1`, 1030 s. The figure for `COCCCNC(=O)N1CCN(Cc2nc3cccnc3n2-c2cc(C)cc(C)c2)CC1` is 650 s. To `COc1ccc(-n2cc(C(=O)N3CCC(C(N)=O)CC3)nn2)cc1` belongs 612 s.
